Assay results: patent US20240335395A1, “COMPOSITIONS AND METHODS FOR PREVENTING AND/OR TREATING DISEASE ASSOCIATED WITH IL-23 EXPRESSION” (ALLSPIM, priority 2021, published 2024)

Legend:
[1] = tested on: IL-17/IL-23 and TNF signature cytokines and chemokines; assay: Release of IL-17/IL-23 and TNF signature cytokines and chemokines into supernatant of LPS-stimulated THP-1 cells (ELISA); type: cell-based, human; details: 24 h
Method: (§1) Sample Collection and Preparation. THP-1 cells, a human leukemia monocyte-derived cell line, have been widely used as a model to study the modulation of the immune response and the function of monocytes and monocyte-derived macrophages. Here, lipopolysaccharide (LPS)-stimulated THP-1 cells were used as a model to study the cytokine storm in vitro (Chanput et al., 2014). THP-1 cells (purchased from American Type Culture Collection, Rockville, MD) were grown in RPMI 1640 culture medium (Gibco) supplemented with 10% fetal bovine serum (FBS) (Gibco, UK), 0.05 mM 2-mercaptoethanol, and 1% penicillin/streptomycin (Invitrogen) at 37° C. in 5% CO2 in a humidified incubator. Cultured cells were plated into culture plates in appropriate volumes with a cell density of 5×10^5 cells/ml. 2,4-D was purchased from Wuhan ChemFaces Biochemical Co., Ltd (Hubei, China) and tested for cytotoxicity in THP-1 cells overnight using a commercial MTT Cell Proliferation and Cytotoxicity Assay Kit (Beyotime, Shanghai, China). […]
ELISA. […] Culture supernatants were measured according to the manufacturer's instructions. A Varioskan LUX microplate reader (Thermo Fisher, USA) was used for the assay and 4-parameter logistic regression was used for data analysis. […] Data are expressed as mean±SD. […]

[2] = tested on: MSU-induced knee joint edema; assay: MSU-induced knee joint edema in mice; type: in vivo, mouse; details: 20 h
Method: (§2) 2,4-D, isolated and purified from Chloranthus spicatus (purity≥98%), was purchased from BOC Science (Shirley, NY). Colchicine (CLC) (purity≥96%) and dexamethasone (DEX) (purity≥98%) were purchased from Sigma. Mice (six per group) were treated with 2,4-D (100 mg/kg or 20 mg/kg, i.p.), CLC (1 mg/kg or 0.2 mg/kg, i.p.), DEX (0.5 mg/kg or 0.1 mg/kg, i.p.), or vehicle (20% polyoxyethylenesorbitan monooleate (Tween 80) plus PBS) 30 min before intra-articular stimulus with MSU (100 μg/10 μL, i.a.). Six mice with intra-articular injection with PBS alone served as a negative control.
Preparation of monosodium urate crystal (MSU). MSU crystals were prepared as described previously (Ruiz-Miyazawa et al., 2017). Briefly, 800 mg of monosodium urate was dissolved in 155 ml of boiling milli-Q water containing 2N NaOH. After pH adjustment to 8.9, the solution was cooled gradually by stirring at room temperature and crystallized overnight at 4° C. Crystals were collected, and centrifuged at 3,000×g for 2 min at 4° C. The crystals were evaporated and sterilized by heating at 180° C. for 2 h and stored in a sterile environment until use. The load of endotoxin present in the MSU crystals was determined using a ToxinSensor^TM Single Test Kit (GenScript).
(§3) Induction of MSU-Induced Knee Joint Inflammation. Male ICR (CD-1) mice (35-45 g, 10-12 weeks) were purchased from VitalRiver Inc (Beijing, China) and were kept in an animal care facility under controlled temperature of 21±1° C., humidity, and on a light/dark cycle, with ad libitum access to water and standard laboratory chow diet. Animal care and handling procedures were approved by the Animal Ethics Committee of GZUCM (Guangzhou University of Chinese Medicine). All efforts were made to minimize animal suffering and to reduce the number of animals used. Joint inflammation was induced by the intra-articular (i.a.) administration of MSU (200 μg/20 μl) into the right and left knee joints of mice under inhaled 3% isoflurane anesthesia. Control animals received an injection (i.a.) of sterile PBS (20 μL).
Evaluation of Knee Joint Edema. Knee joint edema was determined with a caliper (Mitutoyo) before (zero time), and after the intra-articular injection with MSU at the times indicated. Knee joint edema was determined for each mouse by the difference between the time points indicated on figures and the zero time (Ruiz-Miyazawa et al, 2017). The edema value is represented as Amm/joint.
Statistical Analysis. Data were analyzed using GraphPad Prism statistical software (GraphPad Software, Inc., United States-500.288, version 5.0). Results are presented as means±SEM or SD of measurements made on 6 mice per group, with statistical significance determined by two-way ANOVA, comparing each group to the control (“Model”) group. For in vitro experiments, microassays were performed in quadruplicate. p<0.05 was considered significant (*p<0.05, **p<0.01, ***p<0.001).

[3] = tested on: MSU-induced leukocyte recruitment; assay: MSU-induced leukocyte recruitment to the synovial cavity of knee joint; type: in vivo, mouse; details: 20 h; 2,4-D 100 mg/kg, CLC 1 mg/kg, DEX 0.5 mg/kg
Method: as §2, §3
Histopathological Analysis. Knee joint was collected 20 h after MSU injection, fixed with 10% paraformaldehyde in PBS, and then decalcified for 10 days with EDTA and embedded in paraffin for histological analysis. […] Results are expressed as leukocytes infiltrate (cell/field) counted at the inflammatory foci within synovial cavity as indicative of synovitis. […]
Statistical Analysis. Data were analyzed using GraphPad Prism statistical software (GraphPad Software, Inc., United States-500.288, version 5.0). Results are presented as means±SEM or SD of measurements made on 6 mice per group, with statistical significance determined by two-way ANOVA, comparing each group to the control (“Model”) group. […]

IL-1ß = assay: MSU-induced IL-1ß in knee joint tissue (multiplex microassay); type: in vivo, mouse; details: 2,4-D 100 mg/kg, CLC 1 mg/kg, DEX 0.5 mg/kg
Method: (§4) Mice (six per group) were treated with 2,4-D (100 mg/kg or 20 mg/kg, i.p.), CLC (1 mg/kg or 0.2 mg/kg, i.p.), DEX (0.5 mg/kg or 0.1 mg/kg, i.p.), or vehicle (20% polyoxyethylenesorbitan monooleate (Tween 80) plus PBS) 30 min before intra-articular stimulus with MSU (100 μg/10 μL, i.a.). Six mice with intra-articular injection with PBS alone served as a negative control.
as §3
(§5) Cytokine Measurement. Mice were anesthetized and sacrificed. Knee joints were collected and frozen in liquid nitrogen. Samples were then homogenized in 500 μl of buffer containing protease inhibitors, centrifuged (3600 rpm, 4° C., 15 min) and supernatants were used to determine Th1/Th2/Th17 cytokine levels using a multiplex microassay (Qantibody® mouse TH17 Array 1 kit, Cat. No.: QAM-TH17-1; RayBiotech, Norcross, GA). Results were expressed as picograms (pg) of cytokine/mg of tissue.
(§6) Statistical Analysis. […] For in vitro experiments, microassays were performed in quadruplicate. p<0.05 was considered significant (*p<0.05, **p<0.01, ***p<0.001).

IL-6 = assay: MSU-induced IL-6 in knee joint tissue (multiplex microassay); type: in vivo, mouse; details: 2,4-D 100 mg/kg, CLC 1 mg/kg, DEX 0.5 mg/kg
Method: as §4, §3, §5, §6

IL-10 = assay: MSU-induced IL-10 in knee joint tissue (multiplex microassay); type: in vivo, mouse; details: 2,4-D 100 mg/kg, DEX 0.5 mg/kg
Method: as §4, §3, §5, §6

TNF-alpha = assay: MSU-induced TNF-alpha in knee joint tissue (multiplex microassay); type: in vivo, mouse; details: 2,4-D 100 mg/kg, CLC 1 mg/kg, DEX 0.5 mg/kg
Method: as §4, §3, §5, §6

[4] = tested on: IL-17/IL-23 and TNF signaling pathway-associated cytokine genes and chemokine genes; assay: Transcription of IL-17/IL-23 and TNF signature genes in LPS-stimulated THP-1 cells (qPCR); type: cell-based, human; details: 2 h; RPM 5-20 μM
Method: as §1
Real-Time Quantitative PCR. Real-time quantitative PCR was performed in triplicate using the TB Green qPCR master mix (Takara Biomedical Technology Co., Ltd, Dalian, China) on an ABI 7500 Real-Time PCR System (Thermo, USA). […] The ΔΔCT method was used to quantify relative mRNA levels as described above in Example 1 (Applied Biosystems). Data are expressed as mean±SD. […]

Structure (SMILES) | reduction of release of IL-10, CCL2/MCP-1, CCL3/MIP-1alpha and CCL20/MIP-3alpha ([1]; DEX) | reduction of MSU-induced knee joint edema ([2]; high dose i.p.: 2,4-D 100 mg/kg, CLC 1 mg/kg, DEX 0.5 mg/kg) | reduction of MSU-induced knee joint edema ([2]; low dose i.p.: 2,4-D 20 mg/kg, DEX 0.1 mg/kg) | reduction of MSU-induced leukocyte recruitment [3] | decrease of IL-1ß in knee joint tissue (IL-1ß) | decrease of IL-6 in knee joint tissue (IL-6) | decrease of IL-10 in knee joint tissue (IL-10) | decrease of TNF-alpha in knee joint tissue (TNF-alpha) | inhibition of transcription of Tnf, Il1ß, Ccl2 and Ccl3 [4] | inhibition at 20 µM ([1]; Homo sapiens, THP-1, 20 μM, read-out: inhibition of release of IL-1ß, IL-10, TNF-alpha, CCL2/MCP-1, CCL3/MIP-1alpha and CCL20)
C[C@@H]1C[C@H]2[C@@H]3CCC4=CC(=O)C=C[C@]4(C)[C@@]3(F)[C@@H](O)C[C@]2(C)[C@@]1(O)C(=O)CO [DEX, dexamethasone] | 50-90% | 38.9% | 16.8% | 2.2 fold | 1.9 fold | no effect | 1.5 fold | 2.0 fold | – | –
CO[C@H]1C[C@@H]2CC[C@@H](C)[C@@](O)(O2)C(=O)C(=O)N2CCCC[C@H]2C(=O)O[C@H]([C@H](C)C[C@@H]2CC[C@@H](O)[C@H](OC)C2)CC(=O)[C@H](C)/C=C(\C)[C@@H](O)[C@@H](OC)C(=O)[C@H](C)C[C@H](C)/C=C/C=C/C=C/1C [Rapamycin, rapamycin, reference compound] | – | – | – | – | – | – | – | – | ≤ 50 fold | < 50%
